# What was measured:
# Experiment in all cases: Growth and enzymatic activity on ChromID CPS-based selective media
# Assay type in all cases: cell-based
# Conditions in all cases: cefpodoxime 4 mg/l (T), cefepime 0.25 mg/l (A), cefamandole 3 mg/l (B), cefuroxime 3 mg/l (C), each with 300 mg/l cloxacillin
# [1] = system: Escherichia coli 0505101 (ESBL); set-up: Enz act.: key to the marks not given beside the values
# From the text: (§1) Choice of strains: The inventors selected strains which make it possible to evaluate the activity of antibiotics with respect to Gram-negative species: enterobacteria and nonfermenting bacilli. In particular, ESBL-producing strains, high-level cephalosporinase-producing strains (HL Case) and strains without a particular resistance profile, termed wild-type strains, were used.
# (§2) Preparation of media: The media tested were media composed of the peptone base of the ChromID CPS medium (bioMérieux ref 43541) to which were added, after autoclaving, in molten media, 300 mg/l cloxacillin and, for medium T: 4 mg/l cefpodoxime, for medium A: 0.25 mg/L of cefepime, for medium B: 3 mg/l of cefamandole and for medium C: 3 mg/l of cefuroxime.
# (§3) Inoculation of media: The media are inoculated by carrying out a 3-quadrant streaking method using bacterial suspensions at 0.5 McF. The media are then incubated for 24 hours at 37° C.
# (§4) Reading of media: The media are observed visually after 18 h and 24 hours of incubation, the growth density and also the colorations and coloration strengths are evaluated according to the scale below: • − or 0: absence of growth or of expression of enzymatic acitivity (i.e. no coloration) • +: weak growth, or enzymatic activity • ++: very strong growth density or strong enzymatic acitivity (very strong coloration)
# [2] = system: Serratia fonticola 8001047 (Wild-type)
# From the text: as §1, §2, §3, §4
# [3] = system: Morganella morganii 9904104 (HL case)
# From the text: as §1, §2, §3, §4
# [4] = system: Proteus mirabilis 9709068 (ESBL)
# From the text: as §1, §2, §3, §4
# [5] = system: Klebsiella oxytoca 0105100 (HL case)
# From the text: as §1, §2, §3, §4
# [6] = system: Enterobacter spp 0503037 (Wild-type)
# From the text: as §1, §2, §3, §4
# [7] = system: Proteus mirabilis 0105109 (HL case)
# From the text: as §1, §2, §3, §4
# [8] = system: Proteus mirabilis 0105105 (HL case)
# From the text: as §1, §2, §3, §4
# [9] = system: Klebsiella oxytoca 0502094 (ESBL); set-up: key to the marks not given beside the values
# From the text: as §1, §2, §3, §4
# [10] = system: Enterobacter aerogenes 0502112 (ESBL); set-up: key to the marks not given beside the values
# From the text: as §1, §2, §3, §4
# [11] = system: Enterobacter spp 9306069 (HL case); set-up: key to the marks not given beside the values
# From the text: as §1, §2, §3, §4
# [12] = system: Escherichia coli 0411146 (ESBL); set-up: key to the marks not given beside the values
# From the text: as §1, §2, §3, §4
compound,measurement,setting,value
"CO/N=C(\C(=O)N[C@@H]1C(=O)N2C(C(=O)O)=C(COC(N)=O)CS[C@H]12)c1ccco1 [Cefuroxime, cefuroxime]",Enz act.,[1]; 18 h at 37° C.,++
same,Growth,[1]; 18 h at 37° C.,++
same,Enz act.,[1]; 24 h at 37° C.,++
same,Growth,[1]; 24 h at 37° C.,++
same,Enz act.,[2]; 18 h at 37° C.,++
same,Growth,[2]; 18 h at 37° C.,++
same,Enz act.,[2]; 24 h at 37° C.,++
same,Growth,[2]; 24 h at 37° C.,++
same,Enz act.,[3]; 18 h at 37° C.,−
same,Growth,[3]; 18 h at 37° C.,−
same,Enz act.,[3]; 24 h at 37° C.,−
same,Growth,[3]; 24 h at 37° C.,−
same,Enz act.,[4]; 18 h at 37° C.,+
same,Growth,[4]; 18 h at 37° C.,+
same,Enz act.,[4]; 24 h at 37° C.,++
same,Growth,[4]; 24 h at 37° C.,+
same,Enz act.,[5]; 18 h at 37° C.,++
same,Growth,[5]; 18 h at 37° C.,+
same,Enz act.,[5]; 24 h at 37° C.,++
same,Growth,[5]; 24 h at 37° C.,++
same,Enz act.,[6]; 18 h at 37° C.,++
same,Growth,[6]; 18 h at 37° C.,++
same,Enz act.,[6]; 24 h at 37° C.,++
same,Growth,[6]; 24 h at 37° C.,++
same,Enz act.,[7]; 18 h at 37° C.,++
same,Growth,[7]; 18 h at 37° C.,+
same,Enz act.,[7]; 24 h at 37° C.,++
same,Growth,[7]; 24 h at 37° C.,+
same,Enz act.,[8]; 18 h at 37° C.,−
same,Growth,[8]; 18 h at 37° C.,−
same,Enz act.,[8]; 24 h at 37° C.,−
same,Growth,[8]; 24 h at 37° C.,−
same,Enz act.,[9]; 18 h at 37° C.,++
same,Growth,[9]; 18 h at 37° C.,++
same,Enz act.,[9]; 24 h at 37° C.,++
same,Growth,[9]; 24 h at 37° C.,++
same,Enz act.,[10]; 18 h at 37° C.,++
same,Growth,[10]; 18 h at 37° C.,++
same,Enz act.,[10]; 24 h at 37° C.,++
same,Growth,[10]; 24 h at 37° C.,++
same,Enz act.,[11]; 18 h at 37° C.,++
same,Growth,[11]; 18 h at 37° C.,++
same,Enz act.,[11]; 24 h at 37° C.,++
same,Growth,[11]; 24 h at 37° C.,++
same,Enz act.,[12]; 18 h at 37° C.,++
same,Growth,[12]; 18 h at 37° C.,++
same,Enz act.,[12]; 24 h at 37° C.,++
same,Growth,[12]; 24 h at 37° C.,++
"Cn1nnnc1SCC1=C(C(=O)O)N2C(=O)[C@@H](NC(=O)[C@H](O)c3ccccc3)[C@H]2SC1 [Cefamandole, cefamandole]",Enz act.,[1]; 18 h at 37° C.,++
same,Growth,[1]; 18 h at 37° C.,++
same,Enz act.,[1]; 24 h at 37° C.,++
same,Growth,[1]; 24 h at 37° C.,++
same,Enz act.,[2]; 18 h at 37° C.,+
same,Growth,[2]; 18 h at 37° C.,+
same,Enz act.,[2]; 24 h at 37° C.,++
same,Growth,[2]; 24 h at 37° C.,+
same,Enz act.,[3]; 18 h at 37° C.,−
same,Growth,[3]; 18 h at 37° C.,−
same,Enz act.,[3]; 24 h at 37° C.,−
same,Growth,[3]; 24 h at 37° C.,−
same,Enz act.,[4]; 18 h at 37° C.,−
same,Growth,[4]; 18 h at 37° C.,+
same,Enz act.,[4]; 24 h at 37° C.,+
same,Growth,[4]; 24 h at 37° C.,+
same,Enz act.,[5]; 18 h at 37° C.,+
same,Growth,[5]; 18 h at 37° C.,+
same,Enz act.,[5]; 24 h at 37° C.,++
same,Growth,[5]; 24 h at 37° C.,+
same,Enz act.,[6]; 18 h at 37° C.,++
same,Growth,[6]; 18 h at 37° C.,++
same,Enz act.,[6]; 24 h at 37° C.,++
same,Growth,[6]; 24 h at 37° C.,++
same,Enz act.,[7]; 18 h at 37° C.,−
same,Growth,[7]; 18 h at 37° C.,−
same,Enz act.,[7]; 24 h at 37° C.,−
same,Growth,[7]; 24 h at 37° C.,−
same,Enz act.,[8]; 18 h at 37° C.,−
same,Growth,[8]; 18 h at 37° C.,−
same,Enz act.,[8]; 24 h at 37° C.,−
same,Growth,[8]; 24 h at 37° C.,−
same,Enz act.,[9]; 18 h at 37° C.,++
same,Growth,[9]; 18 h at 37° C.,++
same,Enz act.,[9]; 24 h at 37° C.,++
same,Growth,[9]; 24 h at 37° C.,++
same,Enz act.,[10]; 18 h at 37° C.,++
same,Growth,[10]; 18 h at 37° C.,++
same,Enz act.,[10]; 24 h at 37° C.,++
same,Growth,[10]; 24 h at 37° C.,++
same,Enz act.,[11]; 18 h at 37° C.,++
same,Growth,[11]; 18 h at 37° C.,++
same,Enz act.,[11]; 24 h at 37° C.,++
same,Growth,[11]; 24 h at 37° C.,++
same,Enz act.,[12]; 18 h at 37° C.,++
same,Growth,[12]; 18 h at 37° C.,++
same,Enz act.,[12]; 24 h at 37° C.,++
same,Growth,[12]; 24 h at 37° C.,++
